Measurements published in ChEMBL document CHEMBL1201862, “PubChem BioAssay data set” (2004).
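Method: 48-hour compound exposure of cells in 96-well plates, five concentrations, linear interpolation of endpoints. GI50 is the concentration that inhibits growth by half.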 The source made the active and inactive calls. No stated cut-off is given here; in the data, active = GI50 up to about 1.1 µM and inactive = higher.

Key:
Test in all cases: NCI anticancer screen, dose series, 48 h
[1] = test system: SK-OV-3
[2] = test system: IGROV-1
[3] = test system: 786-0
[4] = test system: OVCAR-4
[5] = test system: LOX IMVI
[6] = test system: OVCAR-8
[7] = test system: MOLT-4
[8] = test system: ACHN
[9] = test system: SR
[10] = test system: SW-620
[11] = test system: HCT-116
[12] = test system: CCRF-CEM
[13] = test system: MDA-MB-435
[14] = test system: SK-MEL-28
[15] = test system: UO-31
[16] = test system: A549
[17] = test system: TK-10
[18] = test system: NCI/ADR-RES
[19] = test system: HCT-15
[20] = test system: CAKI-1

Row | Compound | GI50 [1] | GI50 [2] | GI50 [3] | GI50 [4] | GI50 [5] | GI50 [6] | GI50 [7] | GI50 [8] | GI50 [9] | GI50 [10] | GI50 [11] | GI50 [12] | GI50 [13] | GI50 [14] | GI50 [15] | GI50 [16] | GI50 [17] | GI50 [18] | GI50 [19] [µM] | GI50 [20]
1 | COc1ccc2[nH]cc(CN3CCC(CO)(c4ccccc4)CC3)c2c1 | 0.53 µM (active) | 38.5 µM (inactive) | 15.3 µM (inactive) | 42.2 µM (inactive) | 16.8 µM (inactive) | 52.7 µM (inactive) | 21 µM (inactive) | 20.2 µM (inactive) | 22.1 µM (inactive) | 21.2 µM (inactive) | 15 µM (inactive) | 21.6 µM (inactive) | 20.6 µM (inactive) | 17.9 µM (inactive) | 22.4 µM (inactive) | 22.5 µM (inactive) | 95.9 µM (inactive) | > 100 µM (inactive) | 35.1 | 
2 | CCOC(=O)C(Cl)(Cl)/S(=N\S(=O)(=O)c1ccccc1)NC(=O)c1ccccc1 (configuration not stated) | > 100 µM (inactive) | > 100 µM (inactive) | > 100 µM (inactive) | > 100 µM (inactive) | > 100 µM (inactive) | > 100 µM (inactive) | > 100 µM (inactive) | > 100 µM (inactive) | > 100 µM (inactive) | > 100 µM (inactive) | > 100 µM (inactive) | > 100 µM (inactive) | > 100 µM (inactive) | > 100 µM (inactive) | > 100 µM (inactive) | > 100 µM (inactive) | > 100 µM (inactive) | > 100 µM (inactive) | > 100 | 
3 | O=C(CCCN1CCC(Nc2ccccc2)(c2nnnn2C2CCCCC2)CC1)c1ccc(F)cc1 | 13.3 µM (inactive) | 11.1 µM (inactive) | 3.89 µM (inactive) | 6.34 µM (inactive) | 3.81 µM (inactive) | 13.1 µM (inactive) | 14 µM (inactive) | 4.58 µM (inactive) | 6.67 µM (inactive) | 6.76 µM (inactive) | 4.48 µM (inactive) | 16.4 µM (inactive) | 6.62 µM (inactive) | 3.79 µM (inactive) | 3.78 µM (inactive) | 3.49 µM (inactive) | 12.9 µM (inactive) | 21 µM (inactive) | 8.28 | 
4 | O=c1cc(-c2ccccc2)[nH]c2ccc(N3CCCC3)cc12 | 0.0466 µM (active) | 0.267 µM (active) | < 0.0114 µM (active) |  | < 0.0137 µM (active) | 0.0365 µM (active) | 0.0794 µM (active) | 0.0222 µM (active) | 0.0184 µM (active) | < 0.01 µM (active) | < 0.0113 µM (active) | < 0.0149 µM (active) | < 0.01 µM (active) | 0.0533 µM (active) | > 100 µM (inactive) | 0.0555 µM (active) | 5.62 µM (inactive) | 0.0159 µM (active) | 0.0743 | < 0.0175 µM (active)
5 | Nc1ccc(C(=O)c2cn(CCN3CCOCC3)c3ccccc23)c2ccccc12 | > 100 µM (inactive) | 16.1 µM (inactive) | 54.6 µM (inactive) | 33 µM (inactive) | 23.4 µM (inactive) | 20.2 µM (inactive) | 19.4 µM (inactive) | 48.9 µM (inactive) | 22.9 µM (inactive) | 30.8 µM (inactive) | 31.7 µM (inactive) | 3.94 µM (inactive) | 27.7 µM (inactive) | 38.4 µM (inactive) | 44.4 µM (inactive) | 40.9 µM (inactive) |  | 22.7 µM (inactive) | 18.2 | 62.8 µM (inactive)
6 | Cc1nn(-c2ccccn2)c2c1C(SC#N)=C(C=O)CC2 | 19.3 µM (inactive) | 11.5 µM (inactive) | 12.4 µM (inactive) |  | 15.7 µM (inactive) | 15.9 µM (inactive) | 2.57 µM (inactive) | 16.3 µM (inactive) | 10.1 µM (inactive) | 13.7 µM (inactive) | 16 µM (inactive) | 2.12 µM (inactive) | 18.1 µM (inactive) | 21.2 µM (inactive) | 14.6 µM (inactive) | 14.8 µM (inactive) | 1.67 µM (inactive) | 20.1 µM (inactive) | 17.4 | 5.64 µM (inactive)
7 | OCCCSc1ccccc1SCCCO | > 100 µM (inactive) | > 100 µM (inactive) | > 100 µM (inactive) | > 100 µM (inactive) | > 100 µM (inactive) | > 100 µM (inactive) | > 100 µM (inactive) |  | > 100 µM (inactive) | > 100 µM (inactive) | > 100 µM (inactive) | > 100 µM (inactive) | > 100 µM (inactive) | > 100 µM (inactive) | > 100 µM (inactive) | > 100 µM (inactive) | > 100 µM (inactive) | > 100 µM (inactive) | > 100 | 
